US11083729B2, “Methods of treating cancer with small molecule NF-κB inhibitors” (ImmuneTarget, Inc., priority 2017, dated 2021)
pIC50: −log10 of the molar value.

Biological target: T1, c-Rel protein (Homo sapiens, UniProt Q04864)
T1 sequence (Q04864 1-619): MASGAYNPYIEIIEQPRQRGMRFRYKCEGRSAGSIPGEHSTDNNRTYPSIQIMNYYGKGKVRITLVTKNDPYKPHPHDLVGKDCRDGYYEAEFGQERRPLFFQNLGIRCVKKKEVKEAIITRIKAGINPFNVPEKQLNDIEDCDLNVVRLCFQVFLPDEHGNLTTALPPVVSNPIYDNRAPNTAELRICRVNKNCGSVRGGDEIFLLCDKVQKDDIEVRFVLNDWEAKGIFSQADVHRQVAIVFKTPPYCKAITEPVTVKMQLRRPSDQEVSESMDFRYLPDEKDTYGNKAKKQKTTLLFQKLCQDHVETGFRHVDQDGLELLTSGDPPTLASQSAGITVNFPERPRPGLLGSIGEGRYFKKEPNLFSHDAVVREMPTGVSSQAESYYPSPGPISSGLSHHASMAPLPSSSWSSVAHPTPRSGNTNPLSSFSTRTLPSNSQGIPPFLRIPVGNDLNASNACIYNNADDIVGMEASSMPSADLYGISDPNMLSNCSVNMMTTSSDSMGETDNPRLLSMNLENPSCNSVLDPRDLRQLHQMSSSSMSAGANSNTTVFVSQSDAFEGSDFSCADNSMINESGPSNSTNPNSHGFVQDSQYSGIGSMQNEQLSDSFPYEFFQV
Assay: Electrophoretic Mobility Shift Assay (EMSA), c-Rel binding to CD28RE oligonucleotide
Conditions: 10 nM c-Rel protein
Experimental: DNA binding reaction (20 μL) was carried out in 1×DNA Binding Buffer (10 mM Tris, 40 mM NaCl, 1 mM EDTA, 4% glycerol) with 10 nM c-Rel protein and 0.5 ng phosphor-labeled CD28RE oligonucleotide for 10 minutes at room temperature in 96-well plates. Test compounds, in serial dilutions, were added into each well, and further incubated for 15 minutes before loading onto native 5% polyacrylamide gel. Electrophoresis proceeded for 2.5 hours at 160V. Radioactive signals were quantified using Phospho-Imager. IC50 of compounds of example 1 to 75 were determined by quantifying the intensity of Rel/NF-κB inhibition in EMSA using phospho-imager. An example of EMSA data of the present invention is shown for compound 6 in FIG. 2.

Row | Structure (SMILES) | pIC50
1 | CC(=O)OCCCCCCOc1ccc2cc3c(=O)[nH]c(=O)nc-3oc2c1Cl [compound 58] | > 5.30
2 | CC(C)(C)COc1cc2oc3nc(=O)[nH]c(=O)c-3cc2cc1F [compound 36] | > 6.30
3 | CC(C)(C)CCOc1ccc2cc3c(=O)[nH]c(=O)nc-3oc2c1Cl [compound 41] | > 6.30
4 | CCCCCCCOc1cc2oc3nc(=O)[nH]c(=O)c-3cc2cc1F [compound 32] | > 6.30
5 | CCCCCCOc1cc2oc3nc(=O)[nH]c(=O)c-3cc2cc1Cl [compound 37] | > 6.30

Further lines, results first:

Row | pIC50 | Structure (SMILES)
6 | > 6.00 | COc1ccc2cc3c(=O)[nH]c(=O)nc-3oc2c1 [compound 6, 8-methoxy-2H-chromeno[2,3-d]pyrimidine-2,4(3H)-dione]
7 | > 5.30 | O=c1nc2oc3ccccc3cc-2c(=O)[nH]1 [compound 9, 2H-chromeno[2,3-d]pyrimidine-2,4(3H)-dione]
8 | > 6.00 | COCCCCOc1cc2oc3nc(=O)[nH]c(=O)c-3cc2cc1Cl [compound 69]
9 | > 6.00 | COCCOCCCOc1ccc2cc3c(=O)[nH]c(=O)nc-3oc2c1 [compound 71]
10 | > 6.30 | Cc1cc2oc3nc(=O)[nH]c(=O)c-3cc2cc1F [compound 27, 7-fluoro-8-methyl-2H-chromeno[2,3-d]pyrimidine-2,4(3H)-dione]
11 | > 6.00 | CCCc1cc2oc3nc(=O)[nH]c(=O)c-3cc2cc1Cl [compound 25, 7-chloro-8-propyl-2H-chromeno[2,3-d]pyrimidine-2,4(3H)-dione]
